In brackets after ≈: the same amount, converted by molar mass. Read-outs that look alike come from different tables or passages of the source.
What was measured:
Type in all cases: cell-based
[1] = tested on: S. aureus 76 (Meth^R)(lac^+); assay: In vitro antibacterial evaluation, MIC by agar dilution, S. aureus 76; details: Staphylococcus aureus, read-out: MIC
Method in brief: (§1)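 Minimum inhibitory concentrations came from the NCCLS agar dilution method in Mueller-Hinton agar. Each isolate received about 10^4 cfu per spot, and plates were read after 16-20 hours at 35°-36° C.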

E. faecalis ATCC 29212 = assay: In vitro antibacterial evaluation, MIC by agar dilution, E. faecalis ATCC 29212; details: Enterococcus faecalis, ATCC29212; E. faecalis ATCC 29212; read-out: MIC
Method in brief: as §1

[2] = tested on: X. maltophilia ATCC 13637; assay: In vitro antibacterial evaluation, MIC by agar dilution, X. maltophilia ATCC 13637; details: Stenotrophomonas maltophilia, ATCC13637
Procedure: The compounds of the invention were evaluated against several β-lactamresistant bacteria strains by determining the minimum inhibitory concentration (MIC, μg/ml) of each compound with respect to each strain. The MIC, the lowest concentration of antibiotic which inhibits growth of the test organism, was determined by the agar dilution method.
To determine the MIC for bacterial isolates, the test compound was incorporated in a series of two-fold dilutions into liquified Mueller-Hinton agar. Upon solidification, a number of different bacterial strains were spot inoculated with a replicating device onto the agar surface. […] The procedures used in these studies have been standardized by the National Committee for Clinical Laboratory Standards (NCCLS), as per the NCCLS publication entitled METHODS FOR DILUTION ANTIMICROBIAL SUSCEPTIBILITY TESTS (1991), which is incorporated herein by reference.
Aliquots of antimicrobial agents were prepared in phosphate buffered saline (PBS) at pH 7.2. Tween 20 or DMSO was used as a solubilizing vehicle as needed. Standard methods of vortexing, sonicating and gentle heat were used to facilitate solubilizing the test agent. Typically, the concentration of the stock solution was 10× that of the highest drug concentration tested. A 1.28 mg/mL stock solution was used with a subsequent highest working concentration of 128 μg/mL. Serial two-fold dilutions were done through ≤0.25 μg/mL. Each drug level was tested in duplicate. Two-fold drug dilutions were done in sterile 50 mL tubes with a final drug volume of 5 mL. Upon the addition of 45 mL of molten agar, a 10-fold dilution resulted. Two, 25 mL. plates were then poured into 15×150 mm square Petri plates with grids and allowed to harden.
A control plate with a reference drug, either cefotaxime, vancomycin or imipenem, was used as the positive growth control. Stock concentrations of reference antibiotics were prepared and frozen at -80° C. Upon preparation, the control plates were sealed and stored in the refrigerator for up to 1 week prior to use; however, imipenem control plates had to be prepared just prior to use. All test plates were used within 24 hours of preparation.
Satisfactory results were obtained where the inoculum contained about 10^4 colony forming units (cfu) ±0.5 logs. Starting with pure cultures of the test isolates on agar plates, a few isolated colonies were transferred to a tube of nutrient broth and allowed to grow 4-6 hours at 35°-36° C. to reach log-phase growth. Dropwise addition of the broth culture to PBS was done to match a 0.5 McFarland turbidity standard equal to 10^8 cfu/mL. This was further diluted ten-fold in PBS to reach a working inoculum concentration of 10^7 cfu/mL. When 1 μL of the working inoculum was applied to the agar surface a concentration of about 10^4 cfu per spot was obtained.
Disposable sterile 1 μL loops were used to inoculate test plates, with each isolate in a designated grid on the agar plate. An alternate method of inoculation involved the use of a replica plater, a device with 48 steel pins allowing the simultaneous inoculation of multiple isolates. After the spots had dried, the plates were incubated at 35°-36° C. for 16-20 hours. Endpoints were assessed as the minimum inhibitory concentration (MIC) of antimicrobial agent.

E. faecium ATCC 35667 = assay: In vitro antibacterial evaluation, MIC by agar dilution, E. faecium ATCC 35667; details: Enterococcus faecium, ATCC35667, read-out: MIC
Method in brief: as §1

S. haemolyticus (Meth^R) = assay: In vitro antibacterial evaluation, MIC by agar dilution, S. haemolyticus; details: Staphylococcus haemolyticus, read-out: MIC
Method in brief: as §1

E. coli ATCC 25922 = assay: In vitro antibacterial evaluation, MIC by agar dilution, E. coli ATCC 25922; details: Escherichia coli, ATCC25922, read-out: MIC
Method in brief: as §1

P. aeruginosa ATCC 27853 = assay: In vitro antibacterial evaluation, MIC by agar dilution, P. aeruginosa ATCC 27853; details: Pseudomonas aeruginosa, ATCC27853, read-out: MIC
Method in brief: as §1

S. aureus ATCC 25923 = assay: In vitro antibacterial evaluation, MIC by agar dilution, S. aureus ATCC 25923; details: Staphylococcus aureus, ATCC25923
Method in brief: as §1

S. aureus ATCC 29213 = assay: In vitro antibacterial evaluation, MIC by agar dilution, S. aureus ATCC 29213; details: Staphylococcus aureus, ATCC29213; S. aureus ATCC 29213; read-out: MIC
Method in brief: as §1

[3] = tested on: S. aureus Col8A (Meth^S)(lac^-); assay: In vitro antibacterial evaluation, MIC by agar dilution, S. aureus Col8A; details: Staphylococcus aureus
Method in brief: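 Agar dilution per NCCLS (1991): two-fold dilutions from 128 μg/mL down to ≤0.25 μg/mL in Mueller-Hinton agar, each level in duplicate. Spots of about 10^4 cfu of log-phase culture; 16-20 h at 35°-36° C. MIC in μg/ml is the lowest concentration inhibiting growth.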

[4] = tested on: S. epidermidis ATCC 31432; assay: In vitro antibacterial evaluation, MIC by agar dilution, S. epidermidis ATCC 31432; details: Staphylococcus epidermidis, ATCC31432
Method in brief: as §1

[5] = S. aureus ATCC 25923, read-out: MIC
[6] = S. epidermidis ATCC 31432, read-out: MIC

Structure (SMILES) | MIC [1] | MIC (E. faecalis ATCC 29212) | MIC [2] | MIC (E. faecium ATCC 35667) | MIC (S. haemolyticus (Meth^R)) | MIC (E. coli ATCC 25922) | MIC (P. aeruginosa ATCC 27853) | MIC (S. aureus ATCC 25923; [5]) | MIC (S. aureus ATCC 29213) | MIC [3] | MIC [4, 6] | MIC (S. aureus ATCC 25923) | MIC [4]
O=C(Cc1ccccc1)N[C@@H]1C(=O)N2C(C(=O)O)=C(Sc3ccc(F)cc3)CS[C@H]12 [Cmpd 1, (7R)-7-[(Phenylacetyl)amino]-3-(p-fluorophenylthio)-3-cephem-4-carboxylic acid] | 32 µg/mL (≈ 72 µM) | 2 µg/mL (≈ 4.5 µM) | > 32 µg/mL | 8 µg/mL (≈ 18 µM) | > 32 µg/mL | > 32 µg/mL | > 32 µg/mL | < 0.015 µg/mL | 0.03 µg/mL (≈ 0.0675 µM) | 0.03 µg/mL (≈ 0.0675 µM) | < 0.015 µg/mL | – | –
O=C(Cc1ccccc1)N[C@@H]1C(=O)N2C(C(=O)O)=C(Sc3cccc(I)c3)CS[C@H]12 [Cmpd 2, (7R)-7-[(Phenylacetyl)amino]-3-(m-iodophenylthio)-3-cephem-4-carboxylic acid] | 16 µg/mL (≈ 29 µM) | 2 µg/mL (≈ 3.62 µM) | > 32 µg/mL | 2 µg/mL (≈ 3.62 µM) | 16 µg/mL (≈ 29 µM) | > 32 µg/mL | > 32 µg/mL | < 0.015 µg/mL | 0.03 µg/mL (≈ 0.0543 µM) | 0.03 µg/mL (≈ 0.0543 µM) | < 0.015 µg/mL | – | –
O=C(Cc1ccccc1)N[C@@H]1C(=O)N2C(C(=O)O)=C(Sc3ccc(Cl)cc3)CS[C@H]12 [Cmpd 3, (7R)-7-[(Phenylacetyl)amino]-3-(p-chlorophenylthio)-3-cephem-4-carboxylic acid] | 16 µg/mL (≈ 34.7 µM) | 2 µg/mL (≈ 4.34 µM) | > 32 µg/mL | 4 µg/mL (≈ 8.68 µM) | 16 µg/mL (≈ 34.7 µM) | > 32 µg/mL | > 32 µg/mL | – | 0.03 µg/mL (≈ 0.0651 µM) | 0.015 µg/mL (≈ 0.0325 µM) | – | < 0.015 µg/mL | < 0.015 µg/mL
O=C(Cc1ccccc1)N[C@@H]1C(=O)N2C(C(=O)O)=C(Sc3ccccc3Br)CS[C@H]12 [Cmpd 4, (7R)-7-[(Phenylacetyl)amino]-3-(o-bromophenylthio)-3-cephem-4-carboxylic acid] | 4 µg/mL (≈ 7.91 µM) | 4 µg/mL (≈ 7.91 µM) | > 32 µg/mL | 2 µg/mL (≈ 3.96 µM) | 16 µg/mL (≈ 31.7 µM) | > 32 µg/mL | > 32 µg/mL | < 0.06 µg/mL | 0.125 µg/mL (≈ 0.247 µM) | < 0.06 µg/mL | < 0.06 µg/mL | – | –
O=C(Cc1ccccc1)N[C@@H]1C(=O)N2C(C(=O)O)=C(Sc3ccc(Br)cc3)CS[C@H]12 [Cmpd 5, (7R)-7-[(Phenylacetyl)amino]-3-(p-bromophenylthio)-3-cephem-4-carboxylic acid] | 16 µg/mL (≈ 31.7 µM) | 2 µg/mL (≈ 3.96 µM) | > 32 µg/mL | 4 µg/mL (≈ 7.91 µM) | 16 µg/mL (≈ 31.7 µM) | > 32 µg/mL | > 32 µg/mL | < 0.015 µg/mL | 0.03 µg/mL (≈ 0.0594 µM) | 0.03 µg/mL (≈ 0.0594 µM) | < 0.015 µg/mL | – | –
